17 molecules from patent US9908831B2, “Resist composition, method for forming resist pattern, polyphenolic compound for use in the composition, and alcoholic compound that can be derived therefrom” (Mitsubishi Gas Chemical Company, Inc., priority 2011, dated 2018) can be followed below.

Molecules are shown by their SMILES.

What all share (format): physicochemical
The nature of series [1]: Thermal decomposition temperature by DSC. Conditions: 10° C./min to 500° C., nitrogen gas stream. On the procedure: (3) Thermal Decomposition Temperature
The apparatus EXSTAR6000DSC (trade name) manufactured by SII NanoTechnology Inc. was used. About 5 mg of each sample was placed in a non-sealed container made of aluminum, and the temperature was raised to 500° C. at the rate of temperature rise of 10° C./min in a nitrogen gas stream (30 mL/min). The temperature corresponding to a descending peak appeared in the baseline was defined as the thermal decomposition temperature.
Background: DSC measures the heat that a sample takes up or gives off during a temperature scan.

The nature of series [2]: Glass transition temperature by DSC. The note with it: 10° C./min to 300° C., second heating after quench, nitrogen gas stream. The procedure:
(4) Glass Transition Temperature
The apparatus EXSTAR6000DSC (trade name) manufactured by SII NanoTechnology Inc. was used. About 5 mg of each sample was placed in a non-sealed container made of aluminum, and the temperature was raised to 300° C. at the rate of temperature rise of 10° C./min in a nitrogen gas stream (30 mL/min). After the non-sealed container made of aluminum was quenched, again the temperature was raised to 300° C. at the rate of temperature rise of 10° C./min in a nitrogen gas stream (30 mL/min), thereby performing DSC measurement. The temperature corresponding to the middle point (where the specific heat was changed into the half) of a region in which a discontinuous portion appeared in the baseline was defined as the glass transition point.

Series [3] in a line: Solubility of compound in methyl ethyl ketone (MEK). Conditions: dissolution amount in MEK at 23° C., visual. On the procedure: (1) Solubility of Compound in Methyl Ethyl Ketone (MEK)
The solubility of the compound in MEK was evaluated according to the following standard using the dissolution amount in MEK at 23° C. For the measurement of the dissolution amount, the compound was precisely weighed in a test tube at 23° C.; and the target solvent was added to the compound so that a predetermined concentration of the liquid to be obtained was set; a ultrasonic wave was applied to the liquid in an ultrasonic washing machine for 30 minutes; and the state of the resulting liquid was visually evaluated.
Evaluation A: 50% by weight or more
Evaluation B: 10% by weigh or more and less than 50% by weight
Evaluation C: less than 10% by weight

Series [4] is described as follows: Solubility test of compound in safe solvent. The note with it: 23° C., visual. On the procedure: (2) Solubility Test of Compound in Safe Solvent
The solubility of the compound in PGME and PGMEA was evaluated according to the following standard using the dissolution amount in each solvent. For the measurement of the dissolution amount, the compound was precisely weighed in a test tube at 23° C.; and the target solvent was added to the compound so that a predetermined concentration of the liquid to be obtained was set; a ultrasonic wave was applied to the liquid in an ultrasonic washing machine for 30 minutes; and the state of the resulting liquid was visually evaluated.
A: 5.0% by weight≦dissolution amount
B: 3.0% by weight≦dissolution amount<5.0% by weight
C: dissolution amount<3.0% by weight

As to `Oc1ccc2c(C(c3ccc(-c4ccccc4)cc3)c3c(O)ccc4cc(O)ccc34)c(O)ccc2c1` [BisN-1], the thermal decomposition temperature in series [1] turned out to be 250 °C. Besides, the glass transition point in series [2] amounted to 130 °C. Further, the “solubility in MEK” value in series [3] was “B (Evaluation B: 10% by weigh or more and less than 50% by weight)”. In series [4], the “Solubility test of compound in safe solvent PGME” value was “A (A: 5.0% by weight≦dissolution amount)” and the “Solubility test of compound in safe solvent PGMEA” value was “A (A: 5.0% by weight≦dissolution amount)”.

As for `Oc1ccc2ccc(O)c(C(c3ccc(-c4ccccc4)cc3)c3c(O)ccc4ccc(O)cc34)c2c1` [BisN-2], in series [1], the thermal decomposition temperature was found to be 250 °C. The glass transition point in series [2] amounted to 130 °C. Also, in series [3], the “solubility in MEK” value is “B (Evaluation B: 10% by weigh or more and less than 50% by weight)”. In series [4], the “Solubility test of compound in safe solvent PGME” value was “A (A: 5.0% by weight≦dissolution amount)” and the “Solubility test of compound in safe solvent PGMEA” value is “A (A: 5.0% by weight≦dissolution amount)”.

In the case of `Oc1cccc2c(O)c(C(c3ccc(-c4ccccc4)cc3)c3ccc4c(O)cccc4c3O)ccc12` [BisN-3], the thermal decomposition temperature in series [1] turned out to be 250 °C. This molecule had a glass transition point in series [2] of 130 °C. For the same molecule, the “solubility in MEK” value in series [3] was “B (Evaluation B: 10% by weigh or more and less than 50% by weight)”. Besides, in series [4], the “Solubility test of compound in safe solvent PGME” value is reported as “A (A: 5.0% by weight≦dissolution amount)” and the “Solubility test of compound in safe solvent PGMEA” value is “A (A: 5.0% by weight≦dissolution amount)”.

In turn, `Oc1ccc2c(O)cccc2c1C(c1ccc(-c2ccccc2)cc1)c1c(O)ccc2c(O)cccc12` [BisN-4] gave a thermal decomposition temperature in series [1] of 250 °C. The molecule also yielded a glass transition point in series [2] of 130 °C. In addition, the “solubility in MEK” value in series [3] is “B (Evaluation B: 10% by weigh or more and less than 50% by weight)”. In series [4], the “Solubility test of compound in safe solvent PGME” value is “A (A: 5.0% by weight≦dissolution amount)” and the “Solubility test of compound in safe solvent PGMEA” value is given as “A (A: 5.0% by weight≦dissolution amount)”.

`Oc1ccc2ccc(C(c3ccc(-c4ccccc4)cc3)c3ccc4ccc(O)cc4c3O)c(O)c2c1` [BisN-5] showed a thermal decomposition temperature in series [1] of 250 °C. The glass transition point in series [2] was determined as 130 °C. Further, the “solubility in MEK” value in series [3] is “B (Evaluation B: 10% by weigh or more and less than 50% by weight)”. In series [4], the “Solubility test of compound in safe solvent PGME” value was “A (A: 5.0% by weight≦dissolution amount)” and the “Solubility test of compound in safe solvent PGMEA” value is recorded as “A (A: 5.0% by weight≦dissolution amount)”.

`Oc1cc2ccccc2c(C(c2ccc(-c3ccccc3)cc2)c2c(O)c(O)cc3ccccc23)c1O` [BisN-6] registered a thermal decomposition temperature in series [1] of 250 °C. In series [2], this molecule showed a glass transition point of 130 °C. The “solubility in MEK” value in series [3] was “B (Evaluation B: 10% by weigh or more and less than 50% by weight)”. Further, in series [4], the “Solubility test of compound in safe solvent PGME” value was “A (A: 5.0% by weight≦dissolution amount)” and the “Solubility test of compound in safe solvent PGMEA” value was “A (A: 5.0% by weight≦dissolution amount)”.

Take `Oc1ccc2c(C(c3cccc4ccccc34)c3c(O)ccc4cc(O)ccc34)c(O)ccc2c1` [BisN-7]: the thermal decomposition temperature in series [1] is 255 °C. Also, the glass transition point in series [2] came out at 135 °C. For the same molecule, in series [3], the “solubility in MEK” value was “B (Evaluation B: 10% by weigh or more and less than 50% by weight)”. Further, in series [4], the “Solubility test of compound in safe solvent PGME” value was “A (A: 5.0% by weight≦dissolution amount)” and the “Solubility test of compound in safe solvent PGMEA” value is recorded as “A (A: 5.0% by weight≦dissolution amount)”.

With `Oc1ccc2c(C(c3c(O)ccc4cc(O)ccc34)c3cc4ccccc4c4ccccc34)c(O)ccc2c1` [BisN-8], in series [1], the thermal decomposition temperature stood at 255 °C. In addition, the glass transition point in series [2] is 140 °C. The “solubility in MEK” value in series [3] was “B (Evaluation B: 10% by weigh or more and less than 50% by weight)”. Also, in series [4], the “Solubility test of compound in safe solvent PGME” value was “A (A: 5.0% by weight≦dissolution amount)” and the “Solubility test of compound in safe solvent PGMEA” value is “A (A: 5.0% by weight≦dissolution amount)”.

In turn, `Oc1ccc2c(C(c3c(O)ccc4cc(O)ccc34)c3ccc4ccc5cccc6ccc3c4c56)c(O)ccc2c1` [BisN-9] displayed a thermal decomposition temperature in series [1] of 260 °C. This molecule also came in with a glass transition point in series [2] of 140 °C. In addition, the “solubility in MEK” value in series [3] is “B (Evaluation B: 10% by weigh or more and less than 50% by weight)”. For the same molecule, in series [4], the “Solubility test of compound in safe solvent PGME” value is listed as “A (A: 5.0% by weight≦dissolution amount)” and the “Solubility test of compound in safe solvent PGMEA” value is on record as “A (A: 5.0% by weight≦dissolution amount)”.

`Oc1ccc2c(C3(c4c(O)ccc5cc(O)ccc45)CCCCC3)c(O)ccc2c1` [BisN-10]: in series [1], the thermal decomposition temperature is 210 °C. The molecule further had a glass transition point in series [2] of 100 °C. The “solubility in MEK” value in series [3] was “B (Evaluation B: 10% by weigh or more and less than 50% by weight)”. In series [4], the “Solubility test of compound in safe solvent PGME” value is “A (A: 5.0% by weight≦dissolution amount)” and the “Solubility test of compound in safe solvent PGMEA” value is “A (A: 5.0% by weight≦dissolution amount)”.

On to `Oc1ccc2c(C3(c4c(O)ccc5cc(O)ccc45)c4ccccc4-c4ccccc43)c(O)ccc2c1` [BisN-11], for which the thermal decomposition temperature in series [1] came out at 250 °C. In series [2], this molecule displayed a glass transition point of 135 °C. Besides, in series [3], the “solubility in MEK” value was “B (Evaluation B: 10% by weigh or more and less than 50% by weight)”. Besides, in series [4], the “Solubility test of compound in safe solvent PGME” value is given as “A (A: 5.0% by weight≦dissolution amount)” and the “Solubility test of compound in safe solvent PGMEA” value was “A (A: 5.0% by weight≦dissolution amount)”.

Molecule `Oc1ccc2c(C(c3ccc(C(c4c(O)ccc5cc(O)ccc45)c4c(O)ccc5cc(O)ccc45)cc3)c3c(O)ccc4cc(O)ccc34)c(O)ccc2c1` [BisN-12] had a thermal decomposition temperature in series [1] of 245 °C. Besides, in series [2], the glass transition point was found to be 130 °C. Moreover, the “solubility in MEK” value in series [3] was “B (Evaluation B: 10% by weigh or more and less than 50% by weight)”. Further, in series [4], the “Solubility test of compound in safe solvent PGME” value was “A (A: 5.0% by weight≦dissolution amount)” and the “Solubility test of compound in safe solvent PGMEA” value is listed as “A (A: 5.0% by weight≦dissolution amount)”.

As for `Oc1ccc2c(C(c3ccc(-c4ccc(C(c5c(O)ccc6cc(O)ccc56)c5c(O)ccc6cc(O)ccc56)cc4)cc3)c3c(O)ccc4cc(O)ccc34)c(O)ccc2c1` [BisN-13], in series [1], the thermal decomposition temperature came to 245 °C. This molecule also came in with a glass transition point in series [2] of 130 °C. Moreover, the “solubility in MEK” value in series [3] was “B (Evaluation B: 10% by weigh or more and less than 50% by weight)”. Besides, in series [4], the “Solubility test of compound in safe solvent PGME” value was “A (A: 5.0% by weight≦dissolution amount)” and the “Solubility test of compound in safe solvent PGMEA” value is “A (A: 5.0% by weight≦dissolution amount)”.

For the molecule `Oc1ccc2c(C(c3cc(C(c4c(O)ccc5cc(O)ccc45)c4c(O)ccc5cc(O)ccc45)cc(C(c4c(O)ccc5cc(O)ccc45)c4c(O)ccc5cc(O)ccc45)c3)c3c(O)ccc4cc(O)ccc34)c(O)ccc2c1` [BisN-14], the thermal decomposition temperature in series [1] was determined as 245 °C. This molecule had a glass transition point in series [2] of 130 °C. The “solubility in MEK” value in series [3] is “B (Evaluation B: 10% by weigh or more and less than 50% by weight)”. For the same molecule, in series [4], the “Solubility test of compound in safe solvent PGME” value is listed as “A (A: 5.0% by weight≦dissolution amount)” and the “Solubility test of compound in safe solvent PGMEA” value is listed as “A (A: 5.0% by weight≦dissolution amount)”.

Consider `Oc1cc(O)c2cc1C(c1ccc(C3CCCCC3)cc1)c1cc(c(O)cc1O)C(c1ccc(C3CCCCC3)cc1)c1cc(c(O)cc1O)C(c1ccc(C3CCCCC3)cc1)c1cc(c(O)cc1O)C2c1ccc(C2CCCCC2)cc1` (stereo not shown) [CR-1, reference compound], for which, in series [4], the “Solubility test of compound in safe solvent PGME” value is on record as “B (B: 3.0% by weight≦dissolution amount<5.0% by weight)” and the “Solubility test of compound in safe solvent PGMEA” value was “C (C: dissolution amount<3.0% by weight)”.

`OCCOc1ccc2c3c(ccc2c1)Oc1ccc2cc(OCCO)ccc2c1C3c1ccc(-c2ccccc2)cc1` [Example 29]: in series [1], the thermal decomposition temperature was 375 °C. In series [2], this molecule displayed a glass transition point of 132 °C.

Regarding `Cc1cc(C(c2ccc3ccc(C(c4cc(C)c(O)c(C)c4C)c4cc(C)c(O)c(C)c4C)cc3c2)c2cc(C)c(O)c(C)c2C)c(C)c(C)c1O` [TetP-1, reference compound], in series [4], the “Solubility test of compound in safe solvent PGME” value is “A (A: 5.0% by weight≦dissolution amount)” and the “Solubility test of compound in safe solvent PGMEA” value was “A (A: 5.0% by weight≦dissolution amount)”.
